Results taken from US9963496B2, “Stable glucagon analogues and use for treatment of hypoglycaemia” (Novo Nordisk A/S, priority 2014, dated 2018).
*1 amine or outer side, *2 acyl side, *3 side chain or, on linkers, in order; H or OH if unused. Where a SMILES comes first, the peptide text is derived from it. Side-chain parts run from the residue outwards. The star is where a group is joined. γGlu = O=C(O)[C@H](CCC(=O)[*:2])N[*:1]; Desaminohistidyl = O=C(CCc1c[nH]cn1)*

Columns and labels:
[1] = physchem; assay type: physicochemical; settings: pH 7.5
Method in brief: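 Peptide at 250 μM in 10 mM HEPES pH 7.5 with 1 μM Thioflavin T, incubated at 37° C with 960 rpm orbital shaking. ThT fluorescence (ex 444/em 485 nm) read every 20 min; lag-time (t0−2τ) and kapp (1/τ) from curve fit. Recovery is post-assay supernatant peptide by RP-HPLC as % of initial.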

[2] = target: T1, human glucagon receptor (Homo sapiens, UniProt P47871); assay: Assay (II)(b): glucagon receptor binding, 125I-glucagon displacement on isolated membranes (SPA); settings: displacement of 125I-glucagon, membranes of BHK cells with human glucagon receptor, 2 h at 25° C.; read-out: IC50 hGlucagonR
T1 construct: expressed in transfected cells; host or cells: BHK cells, clone BHK hGCGR A3*25; isolated membranes
T1 sequence (P47871 26-477): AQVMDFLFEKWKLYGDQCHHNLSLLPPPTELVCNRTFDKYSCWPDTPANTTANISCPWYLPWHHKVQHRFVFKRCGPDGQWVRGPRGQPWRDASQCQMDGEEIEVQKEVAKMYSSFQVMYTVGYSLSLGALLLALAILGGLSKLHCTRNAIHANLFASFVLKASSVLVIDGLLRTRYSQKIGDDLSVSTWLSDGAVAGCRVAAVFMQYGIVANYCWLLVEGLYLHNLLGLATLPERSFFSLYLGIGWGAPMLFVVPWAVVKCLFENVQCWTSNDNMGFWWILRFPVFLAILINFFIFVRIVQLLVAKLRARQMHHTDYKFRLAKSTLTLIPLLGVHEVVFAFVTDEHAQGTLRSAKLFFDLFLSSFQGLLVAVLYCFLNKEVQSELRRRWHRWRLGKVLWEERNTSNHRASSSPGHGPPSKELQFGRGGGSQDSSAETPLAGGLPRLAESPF
Protocol: (b) Glucagon Receptor Binding
The purpose of this assay was to test the in vitro receptor binding activity of the glucagon derivatives of the invention. The receptor binding activity is a measure of affinity of a derivative for the human glucagon receptor.
The receptor binding of each compound to the human glucagon receptor was measured in a displacement binding assay. In this type of assay a labelled ligand (in this case 125I-glucagon) is bound to the receptor. Each derivative is added in a series of concentrations to isolated membranes containing the human glucagon receptor and displacement of the labelled ligand is monitored. The receptor binding is reported as the concentration at which half of the labelled ligand is displaced from the receptor, the IC50 value.
HME buffer consisted of 25 mM HEPES, 2 mM MgCl2 and 1 mM EDTA, and pH was adjusted to 7.4. Binding buffer consisted of 50 mM HEPES supplemented with 5 mM MgCl2, 1 mM CaCl2, 0.02% Tween 20 and 0.1% Ovalbumin, and pH was adjusted to 7.4.
The cells used in this assay (clone BHK hGCGR A3*25) were BHK cells stable transfected with an expression plasmid containing the cDNA encoding the human glucagon receptor.
The cells were grown at 5% CO2 in DMEM, 10% fetal calf serum, 1% Pen/Strep (Penicillin/Streptomycin) and 1.0 mg/mL of the selection marker G418. To make a membrane preparation the cells were grown to approximately 80% confluence. The cells were washed twice in phosphate-buffered saline and harvested. The cells were pelleted using a brief centrifugation and the cell pellet was kept on ice. The cells were lysed by adding approx. 5 mL HME buffer, mix by pipetting and snap freeze in liquid nitrogen. The cell lysate was quickly thawed and HME buffer added to 10 mL. The cell pellet was homogenised with an ULTRA-THURRAX dispersing instrument for 20-30 seconds. The homogenate was centrifuged at 20,000×G, 4° C. for 10 minutes. The pellet was resuspended (homogenised) in 1-2 mL HME buffer. The protein concentration was determined. The membranes were aliquoted and snap frozen in liquid nitrogen and stored at minus 80° C.
• 1. For the receptor binding assay 50 μl of the assay buffer was added to each well of an assay plate. • 2. Test compounds were serially diluted to give the following concentrations: 8×10 EE-7 M, 8×10 EE-8 M, 8×10 EE-9 M, 8×10 EE-10 M, 8×10 EE-11 M, 8×10 EE-12 M and 8×10 EE-13 M. Twenty-five μl were added to appropriate wells in the assay plate. • 3. Cell membrane aliquots were thawed and diluted to their working concentration. Fifty μl were added to each well in the assay plate. • 4. WGA SPA beads were suspended in assay buffer at 20 mg/mL. The suspension was diluted to 10 mg/mL in assay buffer just prior to addition to the assay plate. Fifty μl were added to each well in the assay plate. • 5. The incubation was started by adding 25 μl of 480 pM solution of [125I]-glucagon to each well of the assay plate. A 25 μl aliquot was reserved for measuring total counts/well. • 6. The assay plate was incubated for 2 h at 25° C. • 7. The assay plate was centrifuged for 10 min at 1500 rpm. • 8. The assay plate was read in a Packard TopCount NXT instrument. Calculations
The data from the TopCount instrument were transferred to GraphPad Prism software. The software averaged the values for the replicates and performed a non-linear regression.

[3] = target: T1, human glucagon receptor; assay: Assay (I)(b): glucagon receptor activation, CRE luciferase reporter gene assay in BHK cells; assay type: cell-based; settings: BHK cells expressing human glucagon receptor and CRE luciferase, 3 h incubation; read-out: EC50 hGlucagonR
Method in brief: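 BHK570 cells stably expressing the human glucagon receptor and CRE-luciferase, 5×10 EE3 cells/well in DMEM with 2% ovalbumin and 0.2% Pluronic F-68. Compounds at final 1×10 EE-6 to 1×10 EE-13 M, 3 h at 37° C. Luminescence read; EC50 by four-parameter fit.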

Row | SMILES | recovery at 250 μM [1] [%] | IC50 [2] [pM] | EC50 [3] [pM]
1 | CC(=O)N[C@@H](CCC(=O)N[C@@H](CCC(=O)N[C@@H](CCC(=O)N[C@@H](CCC(=O)NCCCC[C@H](NC(=O)[C@@H](NC(=O)[C@H](Cc1ccccc1)NC(=O)[C@H](CCC(=O)O)NC(=O)[C@H](CCC(N)=O)NC(=O)[C@H](C)NC(=O)[C@H](CCCNC(=N)N)NC(=O)[C@H](CCCNC(=N)N)NC(=O)[C@H](CO)NC(=O)[C@H](CCC(=O)O)NC(=O)[C@H](CC(C)C)NC(=O)[C@H](Cc1ccc(O)cc1)NC(=O)[C@H](CCCCN)NC(=O)[C@H](CO)NC(=O)[C@H](Cc1ccc(O)cc1)NC(=O)[C@H](CC(=O)O)NC(=O)[C@H](CO)NC(=O)[C@@H](NC(=O)[C@H](Cc1ccccc1)NC(=O)[C@@H](NC(=O)CNC(=O)[C@H](Cc1c[nH]cn1)NC(=O)[C@H](CO)NC(=O)CCc1c[nH]cn1)[C@@H](C)O)[C@@H](C)O)C(C)C)C(=O)N[C@@H](Cc1c[nH]c2ccccc12)C(=O)N[C@@H](CC(C)C)C(=O)N[C@@H](CC(C)C)C(=O)N[C@@H](CO)C(=O)N[C@H](C(=O)O)[C@@H](C)O)C(=O)O)C(=O)O)C(=O)O)C(=O)O [Example 6, N^ϵ24-[(4S)-4-[[(4S)-4-[[(4S)-4-[[(4S)-4-acetamido-4-carboxybutanoyl]amino]-4-carboxybutanoyl]amino]-4-carboxybutanoyl]amino]-4-carboxybutanoyl]-[Imp1, His3, Glu15, Glu21, Lys24, Leu27, Ser28]-Glucagon] (Desaminohistidyl-SHGTFTSDYSKYLESRRAQEFVK([γGlu-γGlu-γGlu-γGlu-Ac])WLLST-OH) | 101 | 1800 | 
2 | CC(=O)N[C@@H](CCC(=O)N[C@@H](CCC(=O)N[C@@H](CCC(=O)N[C@@H](CCC(=O)NCCCC[C@H](NC(=O)[C@@H](NC(=O)[C@H](Cc1ccccc1)NC(=O)[C@H](CC(=O)O)NC(=O)[C@H](CCC(N)=O)NC(=O)[C@H](C)NC(=O)[C@H](CCCNC(=N)N)NC(=O)[C@H](CCCNC(=N)N)NC(=O)[C@H](CC(C)C)NC(=O)[C@H](CC(=O)O)NC(=O)[C@H](CC(C)C)NC(=O)[C@H](Cc1ccc(O)cc1)NC(=O)[C@H](CCCCN)NC(=O)[C@H](CO)NC(=O)[C@H](Cc1ccc(O)cc1)NC(=O)[C@H](CC(=O)O)NC(=O)[C@H](CO)NC(=O)[C@@H](NC(=O)[C@H](Cc1ccccc1)NC(=O)[C@@H](NC(=O)CNC(=O)[C@H](Cc1c[nH]cn1)NC(=O)[C@H](CO)NC(=O)CCc1c[nH]cn1)[C@@H](C)O)[C@@H](C)O)C(C)C)C(=O)N[C@@H](Cc1c[nH]c2ccccc12)C(=O)N[C@@H](CC(C)C)C(=O)N[C@@H](CC(C)C)C(=O)N[C@@H](CO)C(=O)N[C@H](C(=O)O)[C@@H](C)O)C(=O)O)C(=O)O)C(=O)O)C(=O)O [Example 9, N^ϵ24-[(4S)-4-[[(4S)-4-[[(4S)-4-[[(4S)-4-acetamido-4-carboxybutanoyl]amino]-4-carboxybutanoyl]amino]-4-carboxybutanoyl]amino]-4-carboxybutanoyl]-[Imp1, His3, Leu16, Lys24, Leu27, Ser28]-Glucagon] (Desaminohistidyl-SHGTFTSDYSKYLDLRRAQDFVK([γGlu-γGlu-γGlu-γGlu-Ac])WLLST-OH) | 100 | 500 | 
3 | CC(=O)N[C@@H](CCC(=O)N[C@@H](CCC(=O)N[C@@H](CCC(=O)N[C@@H](CCC(=O)NCCCC[C@H](NC(=O)[C@@H](NC(=O)[C@H](Cc1ccccc1)NC(=O)[C@H](CCC(=O)O)NC(=O)[C@H](CCC(N)=O)NC(=O)[C@H](C)NC(=O)[C@H](CCCNC(=N)N)NC(=O)[C@H](CCCNC(=N)N)NC(=O)[C@H](CO)NC(=O)[C@H](CCC(=O)O)NC(=O)[C@H](CC(C)C)NC(=O)[C@H](Cc1ccc(O)cc1)NC(=O)[C@H](CCCCN)NC(=O)[C@H](CO)NC(=O)[C@H](Cc1ccc(O)cc1)NC(=O)[C@H](CC(=O)O)NC(=O)[C@H](CO)NC(=O)[C@@H](NC(=O)[C@H](Cc1ccccc1)NC(=O)[C@@H](NC(=O)CNC(=O)[C@H](Cc1c[nH]cn1)NC(=O)[C@H](CO)NC(=O)CCc1c[nH]cn1)[C@@H](C)O)[C@@H](C)O)C(C)C)C(=O)N[C@@H](Cc1c[nH]c2ccccc12)C(=O)N[C@@H](CC(C)C)C(=O)N[C@@H](CC(C)C)C(=O)N[C@@H](CCC(=O)O)C(=O)N[C@H](C(=O)O)[C@@H](C)O)C(=O)O)C(=O)O)C(=O)O)C(=O)O [Example 22, N^ϵ24-[(4S)-4-[[(4S)-4-[[(4S)-4-[[(4S)-4-acetamido-4-carboxybutanoyl]amino]-4-carboxybutanoyl]amino]-4-carboxybutanoyl]amino]-4-carboxybutanoyl]-[Imp1, His3, Glu15, Glu21, Lys24, Leu27, Glu28]-Glucagon] (Desaminohistidyl-SHGTFTSDYSKYLESRRAQEFVK([γGlu-γGlu-γGlu-γGlu-Ac])WLLET-OH) | 100 |  | 17
